This note sets out measurements from patent US20240336657A1, “G-ALPHA-S PEPTIDE INHIBITORS AND USES THEREOF” (The Regents of the University of California, priority 2021, published 2024).

Test [1] deals with R201C Gαs/GDP (Homo sapiens, UniProt P63092, R201C). As to the kind of experiment: Binding to R201C Gαs/GDP (FIGS. 7A-7B).
Test [2] has as its target R201C Gαs (Homo sapiens, UniProt P63092, R201C). Put plainly: Gαs mutant inhibition (FIGS. 1A-1B, FIGS. 6A-6B). It is filed as biochemical. The note with it: in the presence of Gβγ.
In test [3] the target is Gαs S275L (Homo sapiens, UniProt P63092, S275L). Put plainly: Gαs inhibition with mutation in the cyclic peptide binding site (FIGS. 6A-6B). It is filed as biochemical. The note with it: in the assay tested.
Test [4] has as its target WT Gαs (Homo sapiens, UniProt P63092). Put plainly: Gαs inhibition in the presence of Gβγ (FIG. 4, FIGS. 6A-6B). It is filed as biochemical.
Test [5] addresses R201H Gαs (Homo sapiens, UniProt P63092, R201H). As to the kind of experiment: Gαs mutant inhibition in the presence of Gβγ (FIGS. 6A-6B). The format is biochemical.
Test [6] addresses T1, Biotinylated Avi-tagged Gαi1 (residues 2-354 of human Gαi1), GDP-bound (human, UniProt P63096 2-354, biotin on the Avi tag (BirA)).
T1 construct: Loaded with GDP; also called avi-Gαi (FL, WT)
As to the kind of experiment: BLI, biotinylated Gα on streptavidin biosensors. The method, then: (§1) BLI experiments were performed using an OctetRED384 instrument from ForteBio. All experiments were performed at 25° C. using BLI buffer (10 mM HEPES pH 7.4, 150 mM NaCl, 1 mM MgCl₂, 0.05% Tween-20, 0.1% DMSO, 0.2 mM GppNHp or GDP). Cyclic peptides were diluted to a series of concentrations in BLI buffer plus 10 μM Biotin. Assays were conducted in Greiner 384well, black, flat bottom polypropylene plates containing the protein solutions, BLI buffer plus 10 μM Biotin for dissociation, and serial dilutions of cyclic peptides to be tested.
(§2) Biotinylated proteins were immobilized on Streptavidin biosensors by dipping sensors into plate wells containing protein solutions at a concentration of 100-150 nM. Protein loading is around 2-3 nm. Sensors loaded with proteins were moved and dipped into wells with BLI buffer plus 10 μM Biotin to block unlabeled Streptavidin. […] Association and dissociation times were carefully determined to ensure full association and dissociation.
(§3) Raw kinetic data collected were processed with the Data Analysis software provided by the manufacturer using single reference subtraction in which buffer-only reference was subtracted (For GN13 analysis). […] The resulting data were analyzed based on a 1:1 binding model from which kₒₙ and koff values were obtained and then Kd values were calculated.

Test [7] deals with T2, Biotinylated Avi-tagged Gαi1 (residues 2-354 of human Gαi1), GppNHp-bound (human, UniProt P63096 2-354, biotin on the Avi tag (BirA)).
T2 construct: Loaded with GppNHp; Same polypeptide as m9, other nucleotide state
Put plainly: BLI, biotinylated Gα on streptavidin biosensors. The method, then: as §1, §2, §3

Test [8] deals with WT Gαs in HEK293 cell membranes, P63092. As to the kind of experiment: cell-based or functional assay.
In test [9] the target is T3, Biotinylated His/Avi-tagged Gαs used in the RaPID selection, GppNHp-bound (human, UniProt P63092 7-394, biotin on the Avi tag (BirA co-expressed)).
T3 construct: Immobilized on streptavidin magnetic beads
Put plainly: RaPID comparison selection: peptide-mRNA-cDNA complexes on Gαs-immobilized streptavidin beads, qPCR and sequencing.

The target of test [10] is WT Gαs (purified, adenylyl cyclase activity assay) (UniProt P63092-2 7-380). Put plainly: cell-based or functional assay.

Positions of bridges follow the written chain, without caps; N, C: chain ends. Non-standard residues stand in square brackets, D forms with d. Residues, ends and D or L forms follow the SMILES beside them.

WT Gαs, sequence (P63092 whole entry): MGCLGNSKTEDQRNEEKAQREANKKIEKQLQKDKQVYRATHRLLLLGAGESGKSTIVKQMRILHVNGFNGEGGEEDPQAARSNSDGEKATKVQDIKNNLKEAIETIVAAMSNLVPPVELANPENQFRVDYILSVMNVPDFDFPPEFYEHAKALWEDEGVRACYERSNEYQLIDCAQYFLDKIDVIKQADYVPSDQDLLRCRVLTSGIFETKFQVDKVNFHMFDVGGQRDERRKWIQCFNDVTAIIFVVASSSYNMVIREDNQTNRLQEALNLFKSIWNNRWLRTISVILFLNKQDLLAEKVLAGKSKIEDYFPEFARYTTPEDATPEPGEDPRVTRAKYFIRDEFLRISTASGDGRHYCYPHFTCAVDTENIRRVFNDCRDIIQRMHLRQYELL
WT Gαs (purified, adenylyl cyclase activity assay), sequence (P63092 other isoform, or with tags, fused parts or gaps limits assumed): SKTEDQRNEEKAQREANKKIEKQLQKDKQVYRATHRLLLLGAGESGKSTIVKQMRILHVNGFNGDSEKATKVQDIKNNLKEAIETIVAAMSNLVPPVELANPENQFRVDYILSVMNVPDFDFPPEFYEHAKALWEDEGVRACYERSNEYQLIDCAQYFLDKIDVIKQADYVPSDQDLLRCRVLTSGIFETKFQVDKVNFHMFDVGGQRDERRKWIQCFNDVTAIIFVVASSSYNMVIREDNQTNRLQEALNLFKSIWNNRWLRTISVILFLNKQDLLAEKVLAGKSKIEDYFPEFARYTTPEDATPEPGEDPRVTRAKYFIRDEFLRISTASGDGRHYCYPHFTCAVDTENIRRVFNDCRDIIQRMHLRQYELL
R201H Gαs, sequence (P63092 whole entry R201H, the tested form may be a part): as the sequence (P63092 whole entry) above, with R201H counted along it
T3 sequence (P63092 other isoform, or with tags, fused parts or gaps limits assumed): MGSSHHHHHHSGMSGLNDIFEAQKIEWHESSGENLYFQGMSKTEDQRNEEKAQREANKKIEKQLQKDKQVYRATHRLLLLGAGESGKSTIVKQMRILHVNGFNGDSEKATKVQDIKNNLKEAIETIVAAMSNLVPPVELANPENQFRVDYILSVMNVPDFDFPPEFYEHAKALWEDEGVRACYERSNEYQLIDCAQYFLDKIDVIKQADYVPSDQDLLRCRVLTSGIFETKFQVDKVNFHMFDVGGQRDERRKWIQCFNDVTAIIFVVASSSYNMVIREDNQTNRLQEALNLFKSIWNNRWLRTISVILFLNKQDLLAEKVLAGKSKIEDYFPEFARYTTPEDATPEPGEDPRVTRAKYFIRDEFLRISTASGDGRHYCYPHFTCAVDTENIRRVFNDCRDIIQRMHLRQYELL
T1 sequence (P63096 other isoform, or with tags, fused parts or gaps limits assumed): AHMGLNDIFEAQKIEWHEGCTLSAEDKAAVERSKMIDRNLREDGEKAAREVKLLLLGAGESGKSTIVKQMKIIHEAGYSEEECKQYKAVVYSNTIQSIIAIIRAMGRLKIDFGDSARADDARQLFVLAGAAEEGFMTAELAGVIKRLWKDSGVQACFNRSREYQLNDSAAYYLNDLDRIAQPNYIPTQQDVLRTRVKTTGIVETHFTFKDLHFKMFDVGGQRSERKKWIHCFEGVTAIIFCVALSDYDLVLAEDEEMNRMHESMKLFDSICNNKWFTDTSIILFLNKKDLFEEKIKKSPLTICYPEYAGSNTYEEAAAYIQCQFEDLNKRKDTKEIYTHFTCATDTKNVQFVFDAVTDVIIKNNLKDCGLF
T2 sequence (P63096 other isoform, or with tags, fused parts or gaps limits assumed): as above
WT Gαs in HEK293 cell membranes, P63092, sequence (P63092 2-394): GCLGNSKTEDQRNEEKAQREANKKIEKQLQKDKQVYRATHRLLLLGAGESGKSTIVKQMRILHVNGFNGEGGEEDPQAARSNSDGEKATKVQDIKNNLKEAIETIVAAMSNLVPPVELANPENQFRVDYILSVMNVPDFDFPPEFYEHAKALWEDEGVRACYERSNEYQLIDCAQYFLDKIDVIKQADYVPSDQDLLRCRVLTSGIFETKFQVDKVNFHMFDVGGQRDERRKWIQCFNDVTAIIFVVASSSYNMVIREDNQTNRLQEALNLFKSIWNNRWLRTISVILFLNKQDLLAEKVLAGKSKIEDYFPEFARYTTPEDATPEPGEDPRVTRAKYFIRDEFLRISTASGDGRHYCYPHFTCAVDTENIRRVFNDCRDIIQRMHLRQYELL
Gαs S275L, sequence (P63092 whole entry S275L): as the sequence (P63092 whole entry) above, with S275L counted along it
R201C Gαs/GDP, sequence (P63092 whole entry R201C): as the sequence (P63092 whole entry) above, with R201C counted along it
R201C Gαs, sequence (P63092 whole entry R201C): as the sequence (P63092 whole entry) above, with R201C counted along it

For `CC[C@H](C)[C@@H]1NC(=O)[C@H](Cc2c[nH]cn2)NC(=O)[C@H](Cc2ccc(O)cc2)NC(=O)[C@H]([C@@H](C)CC)NC(=O)[C@H](CO)NC(=O)[C@H](CCC(N)=O)NC(=O)[C@H](Cc2ccccc2)NC(=O)[C@@H](Cc2ccc(O)cc2)NC(=O)CSC[C@@H](C(N)=O)NC(=O)[C@H](CC(C)C)NC(=O)[C@H](CCC(=O)O)NC(=O)CNC(=O)[C@H](Cc2c[nH]c3ccccc23)NC1=O` [GR6] ({CH2CO}-[dY]FQSIYHIWGELC-NH2; thioether N-13), in [1], the “binding to R201C Gαs/GDP” value is on record as “increased binding”. Besides, the “inhibition of R201C Gαs” value in test [2] was “inhibits”. The “inhibition with S275L mutation in the cyclic peptide binding site” value in test [3] is listed as “blocked”. For the same molecule, the “inhibition of WT Gαs” value in test [4] is on record as “potently inhibits”. In addition, the “inhibition of R201H Gαs” value in [5] was “inhibits”.

B1: GN13 (peptide)
peptide: {CH2CO}-[dY]FESVYAIWGTLCG-NH2
modifications: thioether N-13
SMILES: CC[C@H](C)[C@@H]1NC(=O)[C@H](C)NC(=O)[C@H](Cc2ccc(O)cc2)NC(=O)[C@H](C(C)C)NC(=O)[C@H](CO)NC(=O)[C@H](CCC(=O)O)NC(=O)[C@H](Cc2ccccc2)NC(=O)[C@@H](Cc2ccc(O)cc2)NC(=O)CSC[C@@H](C(=O)NCC(N)=O)NC(=O)[C@H](CC(C)C)NC(=O)[C@H]([C@@H](C)O)NC(=O)CNC(=O)[C@H](Cc2c[nH]c3ccccc23)NC1=O
notes: Residue numbers in the text (E3, V5, I8, W9, T11) fit this order; In the RaPID selections the peptide carried a GSGSGS linker, puromycin and its mRNA/cDNA; also called cyclic peptide GN13
Take B1: the binding result in test [6] and in test [7] was “no binding” each time. The same molecule showed an IC50, inhibition of ISO-stimulated Gαs activity (cAMP) in HEK293 cell membranes in test [8] of 12.2 µM. Further, the “fold selectivity for GppNHp-bound over GDP-bound Gαs” value in test [9] is over 100 fold. Also, the “IC50, inhibition of Gαs-mediated adenylyl cyclase activation (cAMP production, reconstituted Gαs activity assay)” value in test [10] was 4.15 µM.
